Consider four compounds from PMC9814918, “Rapid optimisation of fragments and hits to lead compounds from screening of crude reaction mixtures” (Communications Chemistry, 2020).

Structures are written as SMILES. Read-outs that look alike come from different tables or passages of the source.

The target of test [1] is T1, Hsp90 (Homo sapiens, UniProt P07900).
T1 construct: N-terminal domain of human Hsp90α (residues 1–236); made in house; host or cells: BL21 cells (E. coli)
Put plainly: KD by SPR titration of purified compounds. The test is classed as binding. The following applies: purified product of the CRM, 25 °C, average of at least two determinations, read-out: KD (SPR) (µM) of pure. An excerpt:
Table 3 summarises for each of the purified compounds from these nine CRMs, the results of a manual soaking of the purified compound or the CRM into Hsp90 crystals, and the measurement for the purified compounds of solubility and KD measured by both SPR titration and by isothermal titration calorimetry (ITC). […] This leaves anomalies for seven CRMs that gave SM. One of these had low solubility (CRM 75), leaving six CRMs giving SM on repeated manual soaking to explain.
(§1) SPR experiments were conducted on T200 and T100 BIAcore instruments (GE Healthcare) at 25 °C. The His-tagged proteins were immobilised on a series of S NTA chips, and the running buffer with 10 mM HEPES, pH 7.4, 150 mM NaCl, 0.05% P-20, 0.025 mM EDTA and 1% DMSO was used. The sensor surface was regenerated between cycles to eliminate any carryover of protein and/or analyte. Details are as described previously.
In general terms: Surface plasmon resonance follows binding to a sensor surface in real time, without labels.

Test [2] concerns the target T2, PDHK2 (Homo sapiens, UniProt Q15119).
T2 construct: human PDHK2 (residues 16–407); His tag with TEV protease cleavage site (N, cleaved yes); made in house; host or cells: BL21 cells (E. coli)
Put plainly: SPR off-rate (koff) of crude reaction mixtures and starting materials. The format is binding. On the procedure: (§2) The off-rate or koff for dissociation of each of the 83 CRMs from Hsp90 and PDHK2 was measured in duplicate by SPR and is shown in Supplementary Table 1. Failure to obtain a koff value for some CRMs (not determined, ND) was due to poor signal and was most marked for PDHK2.
(§3) Both proteins (human PDHK2 (residues 16–407) and N-terminal domain of human Hsp90α (residues 1–236)) were expressed as an N-terminal His tag fusion protein with a TEV protease cleavage in BL21 cells and purified on a Ni^2+ affinity followed by size-exclusion column, details as previously described[13],[27]. Uncleaved His-tagged variants were used in SPR experiments; tags were removed for crystallisation.
as §1

In test [3] the target is T1, Hsp90. The test is described as above. The format is binding. The following applies: 25 °C. On the procedure: as §2, §3, §1
The target of test [4] is T1, Hsp90. Put plainly: Isothermal titration calorimetry. Conditions: read-out: KD measured by ITC for binding to Hsp90. The method, then:
ITC experiments were conducted at 25 °C by titration of a stock sample of 100 µM compound onto a solution of 10 µM Hsp90 in a GE ITC200 instrument.
(In general: In ITC the heat of successive injections is recorded.)

Test [5] deals with T2, PDHK2. Put plainly: FP assay. The format is binding. Conditions: PDHK2, purified enantiomer; read-out: Kd determined by FP assay.
Test [6] has as its target T2, PDHK2. Put plainly: Soak of purified enantiomers into PDHK2 crystals. The format is binding. The following applies: 2 days, 2 mM. The method, then:
CRM number 11 is a racemate of two enantiomers, 23 and 24. […] A PR was obtained for all three of the soaks of CRM number 11 in the full XChem screen that selected just the higher-affinity eutomer 23.
A final concentration of 2 mM of each of the 13 CRMs and 17 pure compounds was added into crystal drops of PDHK2 in triplicate for soak-time durations of 2–4 h, O/N and 2 days at 4 °C. In addition, the final compound concentrations of 0.5 mM and 1 mM were added into PDHK2 crystal drops in triplicate, which were subsequently left to soak for 2 days also at 4 °C. Glycerol was added as a cryoprotectant (at a final concentration of 20%) by ECHO acoustic transfer shortly before mounting the crystals in cryo-cooled pucks. All data were collected on beamline I04-1 in automated mode and autoprocessed using xia2[23].

Where [7] appears, read: Hsp90, SPR, CRM (SM1, SM2: starting material), read-out: koff CRM.

In the case of `NC(=O)c1ccc(O)cc1O` [SM1], the Kd – broadly, a measure of binding affinity in units of concentration – on Hsp90 [1] is 2000 µM; at Hsp90 [4], 2 mM. Also, the koff – broadly, a measure of how fast the partners let go of each other – is at least 1 s⁻¹ on PDHK2 [2] (CRM unpurified (SM1/SM2 head lines: starting material), duplicate, 25 °C, 1 given to all koff >= 1 sec-1 (limit of assay sensitivity), read-out: koff s-1 PDHK2); above 1 s⁻¹ on PDHK2 [2] (read-out: koff for PDHK2); above 1 s⁻¹ on Hsp90 [3] (setting [7]); at least 1 s⁻¹ at Hsp90 [3] (SPR, CRM unpurified (SM1/SM2 head lines: starting material), duplicate, 1 given to all koff >= 1 sec-1 (limit of assay sensitivity), read-out: koff s-1 Hsp90).

On to `CN(C(=O)c1ccc(O)cc1O)c1ccc(C(N)=O)cc1` [SM2], for which, at Hsp90 [1], the Kd was found to be 2 µM. Besides, the koff on PDHK2 [2] (read-out: koff for PDHK2) was 0.083 s⁻¹; at Hsp90 [3] (setting [7]), 0.2 s⁻¹.

Regarding `COc1cc2c(cc1OC)[C@H](c1cccnc1)N(C(=O)c1ccc(O)cc1O)CC2` [Compound 23], the Kd at PDHK2 [5] is 0.14 µM. The “crystal structure from soak of purified enantiomer into PDHK2 crystals” value on PDHK2 [6] was “structures were obtained”.

In the case of `COc1cc2c(cc1OC)[C@@H](c1cccnc1)N(C(=O)c1ccc(O)cc1O)CC2` [Compound 24], on PDHK2 [5], the Kd turned out to be 17 µM. Also, the “crystal structure from soak of purified enantiomer into PDHK2 crystals” value at PDHK2 [6] is on record as “structures were obtained”.
